This is an account of results in patent US3962230A, “P-hydroxymethylphenylacetamidocephalosporins” (SmithKline & French Laboratories, Inc., priority 1975, dated 1976).

Where “and” joins values, the source holds several entries; their conditions need not be identical. Equal values may be shown once. Read-outs that look alike come from different tables or passages of the source. A value given as a limit tells only on which side of the number the result lay.

For assay [1], the system named is Entero. aerog. The assay can be described thus: MIC vs Entero. aerog. Format: cell-based.
Assay [2] concerns Salmonella. The assay can be described thus: MIC vs Salmonella. It counts as cell-based.
The test system of assay [3] is Klebs. pneumo. As to the kind of experiment: ED50 vs Klebs. pneumo. It counts as in vivo.
Assay [4] concerns Klebs. pneumo. The assay can be described thus: MIC vs Klebs. pneumo. It counts as cell-based.
The test system of assay [5] is Pseudomonas sp. As to the kind of experiment: MIC vs Pseudomonas sp. Format: cell-based.
The test system of assay [6] is E. coli. The assay can be described thus: MIC vs E. coli. It counts as cell-based.
Assay [7] deals with Staph. Villaluz. As to the kind of experiment: MIC vs Staph. Villaluz. It counts as cell-based.
Assay [8] concerns Serratia marc. The assay can be described thus: MIC vs Serratia marc. Format: cell-based.
The test system of assay [9] is S. aureus. The assay can be described thus: MIC vs S. aureus. It counts as cell-based. Particulars: Staphylococcus aureus.
Assay [10] concerns Shigella. As to the kind of experiment: MIC vs Shigella. Format: cell-based.
The subject of assay [11] is E. coli. The assay can be described thus: ED50 vs E. coli. It counts as in vivo. Particulars: Escherichia coli.
Assay [12] concerns Strep. faecalis. As to the kind of experiment: MIC vs Strep. faecalis. The following applies: Enterococcus faecalis. Format: cell-based.
Where [13] appears, read: Escherichia coli, second column, read-out: MIC.

`CC1=C(C(=O)O)N2C(=O)[C@@H](NC(=O)C(N)c3ccc(CO)cc3)[C@H]2SC1` (mixture of isomers) [Compound 47216, 7β-(DL-α-Amino-p-hydroxymethylphenylacetamido)desacetoxycephalosporanic acid]: the MIC (commonly the least concentration at which growth counts as inhibited) in assay [1] is 50 µg/mL; in assay [2], 25 µg/mL; in [4] (first column), 25 µg/mL; in assay [4] (second column), 25 µg/mL; in assay [5] it was above 200 µg/mL; in [6] (Escherichia coli, first column, read-out: MIC) it was 25 µg/mL. In addition, the minimal inhibitory concentration (MIC) is 50 µg/mL in [6] (setting [13]); 200 µg/mL in assay [7]; above 200 µg/mL in [8]; 6.3 µg/mL in [9] (first column); 25 µg/mL in [9] (second column); 25 µg/mL in assay [10]. In addition, the 50% effective dose (ED50) (as a rule, the dose that gives a 50% effect, or the effect in half of the subjects) in [3] (po) is 50 mg/kg; in assay [3] (sc), above 50 mg/kg; in assay [11] (po), 29 mg/kg; in assay [11] (sc) it was 33 mg/kg.
For `CC(=O)OCC1=C(C(=O)O)N2C(=O)[C@@H](NC(=O)C(N)c3ccc(CO)cc3)[C@H]2SC1` (mixture of isomers) [Compound 37316, 7β-(DL-α-amino-p-hydroxymethylphenylacetamido)cephalosporanic acid], the MIC was 12.5 µg/mL and 25 μg/me in assay [2]; 25 µg/mL in [4] (second column); above 200 µg/mL in assay [5]; 50 µg/mL in assay [6]; 25 µg/mL in [6] (setting [13]); 100 µg/mL in assay [7]. Also, the MIC in assay [8] is above 200 µg/mL; in [9] (first column), 12.5 µg/mL; in [9] (second column) it was 6.3 µg/mL; in [12], 200 µg/mL. In addition, the 50% effective dose (ED50) was above 50 mg/kg in assay [3] (po), 20 mg/kg in [3] (sc), above 50 mg/kg in assay [11] (po) and 8.7 mg/kg in assay [11] (sc).
